{"source": "paper PMC11413778", "about": "“Honokiol enhances the sensitivity of cetuximab in KRAS^G13D mutant colorectal cancer through destroying SNX3-retromer complex” (Theranostics, 2024)", "biological_target": "T1, SNX3 (Homo sapiens, UniProt O60493)", "T1 construct": "Recombinant Human SNX3 protein (ab109970)", "T1 sequence (O60493 2-162)": "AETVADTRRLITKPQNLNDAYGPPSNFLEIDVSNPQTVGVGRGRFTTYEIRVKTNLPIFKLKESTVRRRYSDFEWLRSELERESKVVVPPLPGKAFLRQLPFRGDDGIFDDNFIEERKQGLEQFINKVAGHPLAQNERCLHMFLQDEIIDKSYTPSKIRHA", "assay": "biolayer interferometry (biotinylated SNX3 on SA biosensor), supported by CETSA in HCT116 and LoVo lysates", "type": "binding", "data": [{"smiles": "C=CCc1ccc(O)c(-c2ccc(O)c(CC=C)c2)c1", "note": "[HNK, honokiol]", "values": [{"measurement": "Kd", "value": 29, "unit": "µM"}]}]}
